Measured values: ChEMBL document CHEMBL5463721, “Data for DCP probe WEB2086” (2023)

How the values were obtained:
[1] = target: cGMP-inhibited 3',5'-cyclic phosphodiesterase 3A (Homo sapiens) (UniProt Q14432); test: Inhibitor of PDE3A in the Eurofins Cerep SafetyScreen44 (BI) by HTRF-homogeneous time resolved fluoresce (Cerep_4072); conditions: Compound concentration 10.0 uM
[2] = target: 5-hydroxytryptamine receptor 3A (Homo sapiens) (UniProt P46098); test: 5-HT3 Eurofins-Cerep binding assay; parameters: ligand concentration 0.5 nM; conditions: Compound concentration 10.0 uM
[3] = target: D(1A) dopamine receptor (Homo sapiens) (UniProt P21728); test: D1 Eurofins-Cerep binding assay; parameters: ligand concentration 0.3 nM; conditions: Compound concentration 10.0 uM
Chain of D(1A) dopamine receptor (Homo sapiens) (P21728 whole entry): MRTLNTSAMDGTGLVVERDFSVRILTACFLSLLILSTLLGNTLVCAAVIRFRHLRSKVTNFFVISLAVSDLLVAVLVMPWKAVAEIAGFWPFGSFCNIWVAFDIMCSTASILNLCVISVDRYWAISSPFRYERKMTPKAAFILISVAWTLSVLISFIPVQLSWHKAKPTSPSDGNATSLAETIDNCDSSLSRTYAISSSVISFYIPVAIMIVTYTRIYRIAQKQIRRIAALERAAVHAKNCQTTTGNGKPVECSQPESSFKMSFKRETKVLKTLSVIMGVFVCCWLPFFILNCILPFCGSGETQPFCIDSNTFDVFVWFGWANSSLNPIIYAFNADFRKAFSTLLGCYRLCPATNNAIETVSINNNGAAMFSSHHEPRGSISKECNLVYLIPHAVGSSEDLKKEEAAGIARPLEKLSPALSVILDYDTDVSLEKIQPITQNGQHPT

[4] = target: Alpha-1A adrenergic receptor (Homo sapiens) (UniProt P35348); test: Agonist activity in the Eurofins Cerep SafetyScreen44 (BI) against ALPHA1AH_ANTAG by Scintillation counting (Cerep_2338); conditions: Compound concentration 10.0 uM
[5] = target: 5-hydroxytryptamine receptor 1B (Homo sapiens) (UniProt P28222); test: 5-HT1B Eurofins-Cerep binding assay; parameters: ligand concentration 1 nM; conditions: Compound concentration 10.0 uM
Rattus norvegicus [6] = organism: Rattus norvegicus; test: KV channel Eurofins-Cerep binding assay; parameters: ligand concentration 0.01 nM; conditions: Compound concentration 10.0 uM
[7] = target: Angiotensin-converting enzyme (Homo sapiens) (UniProt P12821); test: Activity against ACE(HU_AMTCH400) in the Eurofins Cerep SafetyScreen44 (BI) by Photometry (Cerep_3441); conditions: Compound concentration 10.0 uM
[8] = target: Sodium-dependent dopamine transporter (Homo sapiens) (UniProt Q01959); test: dopamine transporter Eurofins-Cerep binding assay; conditions: Compound concentration 10.0 uM
Chain of Sodium-dependent dopamine transporter (Homo sapiens) (Q01959 whole entry): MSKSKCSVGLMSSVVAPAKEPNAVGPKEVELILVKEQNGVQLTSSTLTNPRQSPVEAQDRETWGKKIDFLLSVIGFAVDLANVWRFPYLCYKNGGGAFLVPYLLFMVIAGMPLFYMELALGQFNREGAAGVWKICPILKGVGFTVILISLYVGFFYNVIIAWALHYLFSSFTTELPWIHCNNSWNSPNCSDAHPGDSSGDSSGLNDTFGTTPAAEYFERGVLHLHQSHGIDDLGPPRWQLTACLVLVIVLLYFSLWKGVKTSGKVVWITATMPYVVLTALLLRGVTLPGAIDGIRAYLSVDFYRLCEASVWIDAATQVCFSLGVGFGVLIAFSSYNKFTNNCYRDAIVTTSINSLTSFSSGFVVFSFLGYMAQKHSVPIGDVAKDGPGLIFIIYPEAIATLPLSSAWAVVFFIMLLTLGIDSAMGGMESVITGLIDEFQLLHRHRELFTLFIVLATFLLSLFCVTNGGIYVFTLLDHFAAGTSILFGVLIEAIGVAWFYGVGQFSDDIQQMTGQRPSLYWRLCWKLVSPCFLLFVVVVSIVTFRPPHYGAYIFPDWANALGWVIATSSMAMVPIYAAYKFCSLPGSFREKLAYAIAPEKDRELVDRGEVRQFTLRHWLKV

[9] = target: Adenosine receptor A2a (Homo sapiens) (UniProt P29274); test: A2A Eurofins-Cerep binding assay; parameters: ligand concentration 6 nM; conditions: Compound concentration 10.0 uM
Chain of Adenosine receptor A2a (Homo sapiens) (P29274 whole entry): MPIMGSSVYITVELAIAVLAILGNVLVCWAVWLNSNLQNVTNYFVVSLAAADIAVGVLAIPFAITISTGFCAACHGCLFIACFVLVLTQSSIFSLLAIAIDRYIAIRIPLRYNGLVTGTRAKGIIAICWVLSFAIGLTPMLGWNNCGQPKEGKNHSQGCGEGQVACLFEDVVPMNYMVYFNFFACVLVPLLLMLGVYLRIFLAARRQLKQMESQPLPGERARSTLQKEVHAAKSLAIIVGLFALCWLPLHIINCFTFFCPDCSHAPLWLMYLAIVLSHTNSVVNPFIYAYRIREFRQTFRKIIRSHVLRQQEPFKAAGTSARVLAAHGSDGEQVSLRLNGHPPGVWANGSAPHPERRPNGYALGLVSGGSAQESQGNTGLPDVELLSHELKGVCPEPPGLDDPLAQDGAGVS

[10] = target: Cannabinoid receptor 1 (Homo sapiens) (UniProt P21554); test: CB1 Eurofins-Cerep binding assay; conditions: Compound concentration 10.0 uM
[11] = target: 3',5'-cyclic-AMP phosphodiesterase 4D (Homo sapiens) (UniProt Q08499); test: Inhibitor of PDE4D2 in the Eurofins Cerep SafetyScreen44 (BI) by Scintillation counting (Cerep_4077); conditions: Compound concentration 10.0 uM
[12] = target: 5-hydroxytryptamine receptor 2A (Homo sapiens) (UniProt P28223); test: Agonist activity in the Eurofins Cerep SafetyScreen44 (BI) against 5HT2AH_AGON by Scintillation counting (Cerep_471); conditions: Compound concentration 10.0 uM
Chain of 5-hydroxytryptamine receptor 2A (Homo sapiens) (P28223 whole entry): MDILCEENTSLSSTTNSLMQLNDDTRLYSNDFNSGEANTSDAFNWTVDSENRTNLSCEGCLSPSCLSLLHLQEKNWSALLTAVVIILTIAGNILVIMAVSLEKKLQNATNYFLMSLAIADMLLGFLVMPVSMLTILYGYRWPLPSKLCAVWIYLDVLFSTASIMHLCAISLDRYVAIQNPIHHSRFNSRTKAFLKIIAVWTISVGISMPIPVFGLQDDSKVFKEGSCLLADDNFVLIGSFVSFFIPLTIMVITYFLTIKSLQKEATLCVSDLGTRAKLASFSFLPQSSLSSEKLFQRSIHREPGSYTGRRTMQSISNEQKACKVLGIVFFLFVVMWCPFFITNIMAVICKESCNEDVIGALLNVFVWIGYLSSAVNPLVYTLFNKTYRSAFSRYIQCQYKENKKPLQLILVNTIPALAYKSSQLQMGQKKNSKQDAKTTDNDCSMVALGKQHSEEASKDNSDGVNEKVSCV

Homo sapiens = organism: Homo sapiens; test: Agonist activity in the Eurofins Cerep SafetyScreen44 (BI) against N_NEURO_A4B2 by Radioligand Binding (Cerep_3029); format: protein-complex assay; conditions: Compound concentration 10.0 uM
[13] = target: Sodium-dependent serotonin transporter (Homo sapiens) (UniProt P31645); test: 5-HT transporter Eurofins-Cerep binding assay; parameters: ligand concentration 2 nM; conditions: Compound concentration 10.0 uM
[14] = target: Androgen receptor (Homo sapiens) (UniProt P10275); conditions: Compound concentration 10.0 uM
Description: Activity against ANDROGEN/H in the Eurofins Cerep SafetyScreen44 (BI) by Radioactive Assay (Cerep_933)

[15] = target: 5-hydroxytryptamine receptor 1A (Homo sapiens) (UniProt P08908); test: 5-HT1A Eurofins-Cerep binding assay; parameters: ligand concentration 0.5 nM; conditions: Compound concentration 10.0 uM
[16] = target: Cholecystokinin receptor type A (Homo sapiens) (UniProt P32238); test: CCK1 (CCKA) Eurofins-Cerep binding assay; parameters: ligand concentration 0.08 nM; conditions: Compound concentration 10.0 uM
[17] = target: Kappa-type opioid receptor (Homo sapiens) (UniProt P41145); test: kappa (KOP) Eurofins-Cerep binding assay; conditions: Compound concentration 10.0 uM
Chain of Kappa-type opioid receptor (Homo sapiens) (P41145 whole entry): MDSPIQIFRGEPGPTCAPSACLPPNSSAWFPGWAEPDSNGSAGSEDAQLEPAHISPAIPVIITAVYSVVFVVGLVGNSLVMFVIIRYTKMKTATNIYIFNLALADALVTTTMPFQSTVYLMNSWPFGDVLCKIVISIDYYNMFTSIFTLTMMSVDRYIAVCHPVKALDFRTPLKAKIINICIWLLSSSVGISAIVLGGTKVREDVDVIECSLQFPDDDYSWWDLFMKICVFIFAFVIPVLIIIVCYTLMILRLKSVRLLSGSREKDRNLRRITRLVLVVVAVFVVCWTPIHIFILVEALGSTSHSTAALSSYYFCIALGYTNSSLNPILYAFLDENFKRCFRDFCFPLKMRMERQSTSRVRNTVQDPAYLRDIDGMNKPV

hERG (KCNH2) = hERG (KCNH2) (Homo sapiens, UniProt Q12809); test: Inhibitor of HERG_DOFETILIDE in the Eurofins Cerep SafetyScreen44 (BI) by Scintillation counting (Cerep_4094); parameters: scale not given: the % may be the effect or the level left; conditions: probe [3H] dofetilide, compound concentration 10 uM, read-out: % Ctrl
[18] = target: Sodium-dependent noradrenaline transporter (Homo sapiens) (UniProt P23975); test: norepinephrine transporter Eurofins-Cerep binding assay; parameters: ligand concentration 1 nM; conditions: Compound concentration 10.0 uM
[19] = target: Cannabinoid receptor 2 (Homo sapiens) (UniProt P34972); test: Activity against CB2/PERIPH/H in the Eurofins Cerep SafetyScreen44 (BI) by Radioactive Assay (Cerep_37); conditions: Compound concentration 10.0 uM
[20] = target: Mu-type opioid receptor (Homo sapiens) (UniProt P35372); test: mu (MOP) Eurofins-Cerep binding assay; parameters: ligand concentration 0.5 nM; conditions: Compound concentration 10.0 uM
Rattus norvegicus [21] = organism: Rattus norvegicus; test: Activity against BZD/CENTR/R in the Eurofins Cerep SafetyScreen44 (BI) by Radioactive Assay (Cerep_28); format: protein-complex assay; conditions: Compound concentration 10.0 uM
[22] = target: Endothelin-1 receptor (Homo sapiens) (UniProt P25101); test: ETA Eurofins-Cerep binding assay; parameters: ligand concentration 0.03 nM; conditions: Compound concentration 10.0 uM
Chain of Endothelin-1 receptor (Homo sapiens) (P25101 whole entry): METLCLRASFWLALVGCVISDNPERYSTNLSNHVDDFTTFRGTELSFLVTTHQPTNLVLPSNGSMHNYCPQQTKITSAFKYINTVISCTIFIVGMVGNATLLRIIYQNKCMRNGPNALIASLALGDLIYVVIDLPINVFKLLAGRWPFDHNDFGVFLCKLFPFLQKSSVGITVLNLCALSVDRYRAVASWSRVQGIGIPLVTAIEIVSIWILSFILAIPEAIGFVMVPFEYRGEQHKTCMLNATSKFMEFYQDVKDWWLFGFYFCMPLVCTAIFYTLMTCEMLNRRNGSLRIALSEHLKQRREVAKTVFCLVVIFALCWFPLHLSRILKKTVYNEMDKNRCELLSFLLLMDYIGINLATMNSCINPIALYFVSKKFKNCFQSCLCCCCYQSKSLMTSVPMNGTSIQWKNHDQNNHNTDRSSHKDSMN

[23] = target: Histamine H2 receptor (Homo sapiens) (UniProt P25021); test: H2 Eurofins-Cerep binding assay; parameters: ligand concentration 0.075 nM; conditions: Compound concentration 10.0 uM
[24] = target: Muscarinic acetylcholine receptor M3 (Homo sapiens) (UniProt P20309); test: M3 Eurofins-Cerep binding assay; parameters: ligand concentration 0.2 nM; conditions: Compound concentration 10.0 uM
[25] = target: Muscarinic acetylcholine receptor M2 (Homo sapiens) (UniProt P08172); test: M2 Eurofins-Cerep binding assay; parameters: ligand concentration 2 nM; conditions: Compound concentration 10.0 uM
[26] = target: Histamine H1 receptor (Homo sapiens) (UniProt P35367); test: H1 Eurofins-Cerep binding assay; parameters: ligand concentration 1 nM; conditions: Compound concentration 10.0 uM
[27] = target: D(2) dopamine receptor (Homo sapiens) (UniProt P14416); test: Agonist activity in the Eurofins Cerep SafetyScreen44 (BI) against D2SH_AGON by Scintillation counting (Cerep_1322); conditions: Compound concentration 10.0 uM
[28] = target: Muscarinic acetylcholine receptor M1 (Homo sapiens) (UniProt P11229); test: M1 Eurofins-Cerep binding assay; parameters: ligand concentration 2 nM; conditions: Compound concentration 10.0 uM
[29] = target: Beta-2 adrenergic receptor (Homo sapiens) (UniProt P07550); test: beta 2 Eurofins-Cerep binding assay; conditions: Compound concentration 10.0 uM
[30] = target: Beta-1 adrenergic receptor (Homo sapiens) (UniProt P08588); test: beta 1 Eurofins-Cerep binding assay; parameters: ligand concentration 0.3 nM; conditions: Compound concentration 10.0 uM
[31] = target: Prostaglandin G/H synthase 1 (Homo sapiens) (UniProt P23219); test: Inhibitor of COX-1 in the Eurofins Cerep SafetyScreen44 (BI) by Fluorimetry (Cerep_4173); conditions: Compound concentration 10.0 uM
Chain of Prostaglandin G/H synthase 1 (Homo sapiens) (P23219 whole entry): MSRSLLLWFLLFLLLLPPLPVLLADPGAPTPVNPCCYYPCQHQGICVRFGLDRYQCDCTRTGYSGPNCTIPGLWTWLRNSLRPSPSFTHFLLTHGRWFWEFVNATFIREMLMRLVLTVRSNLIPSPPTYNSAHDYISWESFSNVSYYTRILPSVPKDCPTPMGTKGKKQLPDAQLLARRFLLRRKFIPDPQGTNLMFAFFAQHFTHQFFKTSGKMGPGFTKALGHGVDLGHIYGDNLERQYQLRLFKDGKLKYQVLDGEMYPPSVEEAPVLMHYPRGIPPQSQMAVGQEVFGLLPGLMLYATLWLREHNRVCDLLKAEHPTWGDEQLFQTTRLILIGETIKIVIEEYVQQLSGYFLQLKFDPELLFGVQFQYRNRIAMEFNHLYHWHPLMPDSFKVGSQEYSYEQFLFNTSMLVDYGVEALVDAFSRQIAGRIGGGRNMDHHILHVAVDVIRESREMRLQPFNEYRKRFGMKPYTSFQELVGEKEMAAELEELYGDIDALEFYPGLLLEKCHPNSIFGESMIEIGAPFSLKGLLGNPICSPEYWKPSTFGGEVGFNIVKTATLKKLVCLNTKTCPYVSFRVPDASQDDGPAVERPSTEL

[32] = target: Alpha-2A adrenergic receptor (Homo sapiens) (UniProt P08913); test: Inhibitor of ALPHA2A/HU in the Eurofins Cerep SafetyScreen44 (BI) by Radioactive Assay (Cerep_13); conditions: Compound concentration 10.0 uM
Chain of Alpha-2A adrenergic receptor (Homo sapiens) (P08913 whole entry): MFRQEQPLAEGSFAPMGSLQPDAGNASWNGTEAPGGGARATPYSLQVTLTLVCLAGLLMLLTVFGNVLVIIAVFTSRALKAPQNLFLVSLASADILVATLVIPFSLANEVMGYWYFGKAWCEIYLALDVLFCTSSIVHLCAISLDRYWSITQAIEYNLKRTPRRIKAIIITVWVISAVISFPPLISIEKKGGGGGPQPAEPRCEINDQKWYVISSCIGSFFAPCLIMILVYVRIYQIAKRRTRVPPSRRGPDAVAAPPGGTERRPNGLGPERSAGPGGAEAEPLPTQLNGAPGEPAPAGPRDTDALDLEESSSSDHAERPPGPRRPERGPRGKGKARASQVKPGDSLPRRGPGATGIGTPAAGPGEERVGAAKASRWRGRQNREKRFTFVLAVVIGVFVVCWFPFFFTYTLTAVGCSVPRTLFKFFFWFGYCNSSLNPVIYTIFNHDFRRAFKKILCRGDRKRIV

[33] = target: Platelet-activating factor receptor (Homo sapiens, UniProt P25105); test: PAF Receptor Binding
[34] = target: MAO-A (amine oxidase [flavin-containing] A) (Homo sapiens, UniProt P21397); test: Agonist activity in the Eurofins Cerep SafetyScreen44 (BI) against MAO-A_ANTAG by Scintillation counting (Cerep_443); parameters: scale not given: the % may be the effect or the level left; conditions: rat, compound concentration 10 uM, read-out: % Ctrl
Chain of MAO-A (amine oxidase [flavin-containing] A) (P21397 whole entry): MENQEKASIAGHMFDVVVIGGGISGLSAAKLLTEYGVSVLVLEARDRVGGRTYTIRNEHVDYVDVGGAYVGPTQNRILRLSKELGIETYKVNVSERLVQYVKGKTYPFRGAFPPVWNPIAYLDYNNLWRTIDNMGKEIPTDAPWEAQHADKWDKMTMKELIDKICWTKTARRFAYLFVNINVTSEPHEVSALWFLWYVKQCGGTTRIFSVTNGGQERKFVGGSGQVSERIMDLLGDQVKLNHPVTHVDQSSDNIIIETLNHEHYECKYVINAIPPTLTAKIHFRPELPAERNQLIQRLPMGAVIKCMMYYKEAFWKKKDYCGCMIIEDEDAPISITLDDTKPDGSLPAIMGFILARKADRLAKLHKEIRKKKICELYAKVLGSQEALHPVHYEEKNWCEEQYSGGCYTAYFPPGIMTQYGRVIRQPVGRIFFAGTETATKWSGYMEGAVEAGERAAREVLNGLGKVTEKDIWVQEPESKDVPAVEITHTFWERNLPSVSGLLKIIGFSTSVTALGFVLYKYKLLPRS

[35] = target: Prostaglandin G/H synthase 2 (Homo sapiens) (UniProt P35354); test: Inhibitor of COX-2 in the Eurofins Cerep SafetyScreen44 (BI) by Fluorimetry (Cerep_4186); conditions: Compound concentration 10.0 uM
Chain of Prostaglandin G/H synthase 2 (Homo sapiens) (P35354 whole entry): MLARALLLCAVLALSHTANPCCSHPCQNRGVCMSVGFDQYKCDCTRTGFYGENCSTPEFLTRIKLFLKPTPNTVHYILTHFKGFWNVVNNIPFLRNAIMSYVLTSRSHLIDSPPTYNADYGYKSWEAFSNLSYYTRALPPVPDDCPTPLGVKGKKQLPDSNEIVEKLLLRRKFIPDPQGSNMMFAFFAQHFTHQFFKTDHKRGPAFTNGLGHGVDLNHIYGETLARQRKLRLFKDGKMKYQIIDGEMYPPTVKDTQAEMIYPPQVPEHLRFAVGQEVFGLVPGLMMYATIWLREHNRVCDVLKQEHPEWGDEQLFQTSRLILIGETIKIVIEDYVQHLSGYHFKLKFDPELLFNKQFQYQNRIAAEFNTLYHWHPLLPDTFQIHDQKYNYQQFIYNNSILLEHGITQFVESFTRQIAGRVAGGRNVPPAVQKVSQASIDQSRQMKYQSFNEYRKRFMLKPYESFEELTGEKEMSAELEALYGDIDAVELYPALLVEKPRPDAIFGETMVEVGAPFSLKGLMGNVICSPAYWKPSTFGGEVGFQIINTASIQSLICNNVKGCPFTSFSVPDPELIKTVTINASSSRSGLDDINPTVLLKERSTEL

[36] = target: 5-hydroxytryptamine receptor 2B (Homo sapiens) (UniProt P41595); test: 5-HT2B Eurofins-Cerep binding assay; conditions: Compound concentration 10.0 uM
[37] = target: Tyrosine-protein kinase Lck (Homo sapiens) (UniProt P06239); test: Inhibitor of LCK_CE in the Eurofins Cerep SafetyScreen44 (BI) by lanthanide chelation excitation (Cerep_2906); conditions: Compound concentration 10.0 uM
[38] = target: Glutamate NMDA receptor (Rattus norvegicus) (UniProt P35439+Q00959+Q00960+Q00961+Q62645+Q8VHN2+Q9R1M7); test: Inhibitor of NMDA/R in the Eurofins Cerep SafetyScreen44 (BI) by Radioactive Assay (Cerep_66); format: protein-complex assay; conditions: Compound concentration 10.0 uM
[39] = target: Delta-type opioid receptor (Homo sapiens) (UniProt P41143); test: delta (DOP) Eurofins-Cerep binding assay; parameters: ligand concentration 0.5 nM; conditions: Compound concentration 10.0 uM
[40] = target: Glucocorticoid receptor (Homo sapiens) (UniProt P04150); test: GR Eurofins-Cerep binding assay; conditions: Compound concentration 10.0 uM
[41] = target: Vasopressin V1a receptor (Homo sapiens) (UniProt P37288); test: V1a Eurofins-Cerep binding assay; parameters: ligand concentration 0.3 nM; conditions: Compound concentration 10.0 uM
[42] = target: L-type calcium channel (dihydropyridine site), Cav1.2 alpha-1C (Rattus norvegicus, UniProt P22002); test: Inhibitor of CA+/DHPSI/R in the Eurofins Cerep SafetyScreen44 (BI) by Radioactive Assay (Cerep_161); format: protein assay; parameters: scale not given: the % may be the effect or the level left; conditions: rat brain, probe [3H](+)PN200-110, compound concentration 10 uM, read-out: % Ctrl

`Cc1nnc2n1-c1sc3c(c1C(c1ccccc1Cl)=NC2)C[C@@H](C(=O)N1CCOCC1)C3` showed a residual activity [1] of 109%, a residual activity [2] of 103% and a residual activity [3] of 97%. It also gave a residual activity [4] of 95%, a residual activity [5] of 65% and a residual activity (Rattus norvegicus [6]) of 101%. For the same molecule, the residual activity [7] was 102%, the residual activity [8] was 96% and the residual activity [9] was 106%. The residual activity [10] was 123%, the residual activity [11] was 104% and the residual activity [12] was 100%. The residual activity (Homo sapiens) was 94%, the residual activity [13] was 98% and the residual activity [14] was 106%. It also gave a residual activity [15] of 88%, a residual activity [16] of 90% and a residual activity [17] of 91%. For the same molecule, the activity at 10 µM (hERG (KCNH2)) was 93% (not active), the residual activity [18] was 99% and the residual activity [19] was 107%. For the same molecule, the residual activity [20] was 109%, the residual activity (Rattus norvegicus [21]) was 102% and the residual activity [22] was 103%. It also gave a residual activity [23] of 100%, a residual activity [24] of 84% and a residual activity [25] of 82%. For the same molecule, the residual activity [26] was 100%, the residual activity [27] was 97% and the residual activity [28] was 104%. It also gave a residual activity [29] of 103%, a residual activity [30] of 88% and a residual activity [31] of 97%. The residual activity [32] was 102%, the Kd [33] was 660 nM (not active) and the activity at 10 µM ([34]; target entry is the homologue from another species) was 107% (not active). For the same molecule, the residual activity [35] was 96%, the residual activity [36] was 92% and the residual activity [37] was 106%. For the same molecule, the residual activity [38] was 97%, the residual activity [39] was 101% and the residual activity [40] was 115%. The residual activity [41] was 84% and the activity at 10 µM [42] was 103% (not active).
Molecule `Cc1nnc2n1-c1sc(CCC(=O)N3CCOCC3)cc1C(c1ccccc1Cl)=NC2` [APAFANT] has a residual activity [1] of 105%, a residual activity [2] of 102% and a residual activity [3] of 101%. It also gave a residual activity [4] of 99%, a residual activity [5] of 91% and a residual activity (Rattus norvegicus [6]) of 94%. It also gave a residual activity [7] of 96%, a residual activity [8] of 97% and a residual activity [9] of 104%. It also gave a residual activity [10] of 103%, a residual activity [11] of 103% and a residual activity [12] of 114%. The residual activity (Homo sapiens) was 104%, the residual activity [13] was 106% and the residual activity [15] was 101%. The residual activity [16] was 90%, the residual activity [17] was 95% and the activity at 10 µM (hERG (KCNH2)) was 105% (not active). For the same molecule, the residual activity [18] was 94%, the residual activity [19] was 111% and the residual activity [20] was 108%. For the same molecule, the residual activity (Rattus norvegicus [21]) was 12%, the residual activity [22] was 106% and the residual activity [23] was 108%. It also gave a residual activity [24] of 98%, a residual activity [25] of 98% and a residual activity [26] of 101%. The residual activity [27] was 114%, the residual activity [28] was 107% and the residual activity [29] was 107%. It also gave a residual activity [30] of 101%, a residual activity [31] of 96% and a residual activity [32] of 100%. For the same molecule, the activity at 10 µM [34] was 93% (not active), the residual activity [35] was 47% and the residual activity [36] was 86%. The residual activity [37] was 123%, the residual activity [38] was 101% and the residual activity [39] was 99%. The residual activity [40] was 105%, the residual activity [41] was 109% and the activity at 10 µM [42] was 106% (not active).
